Reference: the supplement of paper PMC10307832

Columns and labels:
Experiment in all cases: relative viability (nuclei count vs DMSO), 5 days (fraction); higher = more cells survive
[1] = compound: C1=CC(=CC=C1C2=CC(=C(S2)NC(=O)N)C(=O)N)F [TPCA-1] + CC(=O)c1c(C)c2cnc(Nc3ccc(N4CCNCC4)cn3)nc2n(C2CCCC2)c1=O [Palbociclib] (partner 0.5 µM)
In short: (§1)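 Five library-drug doses in √10 steps were combined with a fixed anchor-drug dose, or a single drug was given alone, by pin tool to lung cancer cell lines in 1536-well plates the day after seeding. Nuclei were stained and counted after 5 days. Relative viability is the nuclei count in treated wells over that in vehicle wells, taken as the median of duplicate plates.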

[2] = compound: C[C@]12O[C@H](C[C@]1(O)CO)n1c3ccccc3c3c4c(c5c6ccccc6n2c5c31)CNC4=O [Lestaurtinib] + O=C(CCCCCCC(=O)Nc1ccccc1)NO [Vorinostat] (partner 1 µM)
In short: as §1

[3] = compound: C1/C(=C\C2=CC=CS2)/C(=O)/C(=C/C3=CC=CS3)/C1 + C[C@@H](Oc1cc(-c2cnn(C3CCNCC3)c2)cnc1N)c1c(Cl)ccc(F)c1Cl [Crizotinib] (partner 1 µM)
In short: as §1

Cell Line | relative viability ([1]; first compound 0.04 µM) | relative viability ([1]; first compound 0.1265 µM) | relative viability ([1]; first compound 0.4 µM) | relative viability ([1]; first compound 1.265 µM) | relative viability ([1]; first compound 4 µM) | relative viability ([2]; first compound 0.005 µM) | relative viability ([2]; first compound 0.01581 µM) | relative viability ([2]; first compound 0.05 µM) | relative viability ([2]; first compound 0.5 µM) | relative viability ([3]; first compound 0.2 µM) | relative viability ([3]; first compound 0.6325 µM) | relative viability ([3]; first compound 2 µM) | relative viability ([3]; first compound 6.325 µM) | relative viability ([3]; first compound 20 µM) | relative viability ([2]; first compound 0.1581 µM)
NCI-H727 | 0.761 | 0.47 | 0.594 | 0.62 | 0.593 | 1.23 | 1.35 | 1.17 | 0.625 | 0.885 | 0.779 | 0.755 | 0.745 | 0.762 | 
HARA | 0.249 | 0.298 | 0.282 | 0.27 | 0.176 | 0.559 | 0.648 | 0.53 | 0.104 | 0.985 | 1.05 | 1.03 | 0.758 | 1.03 | 0.311
NCI-H2228 | 0.865 | 0.593 | 0.801 | 0.543 | 0.308 | 0.601 | 0.779 | 0.352 | 0.211 | 0.669 | 0.528 | 0.515 | 0.374 | 0.441 | 0.228
LCLC-97TM1 | 0.231 | 0.2 | 0.199 | 0.232 | 0.206 |  | 0.744 | 0.389 | 0.155 | 0.328 | 0.433 | 0.453 | 0.252 | 0.462 | 0.187
LC-2-ad | 0.467 | 0.465 | 0.49 | 0.489 | 0.421 | 0.713 | 0.768 | 0.41 | 0.203 | 0.488 | 0.503 | 0.454 | 0.368 | 0.484 | 0.296
SK-LU-1 | 0.363 | 0.367 | 0.368 | 0.347 | 0.235 | 0.668 | 0.667 | 0.491 | 0.277 | 1.12 | 1.03 | 0.925 | 0.763 | 0.923 | 0.415
EKVX | 0.451 |  | 0.469 | 0.269 | 0.394 | 0.744 | 0.742 | 0.765 | 0.368 | 1.01 | 0.982 | 0.922 | 0.929 | 0.926 | 0.578
HCC-827 | 0.487 | 0.407 | 0.521 | 0.413 | 0.278 | 0.817 | 0.961 | 0.869 | 0.244 | 0.961 | 0.898 | 0.949 | 0.635 | 0.978 | 0.924
NCI-H650 | 0.347 | 0.323 | 0.343 | 0.266 | 0.279 | 0.448 | 0.427 | 0.385 | 0.149 | 0.658 | 0.921 | 0.632 | 0.893 | 0.768 | 0.28
CAL-12T | 0.585 | 0.507 | 0.445 | 0.416 | 0.172 | 0.793 | 0.881 | 0.622 | 0.241 | 0.839 | 0.912 | 0.673 | 0.362 | 0.596 | 0.484
NCI-H2342 | 0.461 | 0.546 | 0.535 | 0.534 | 0.547 | 0.776 | 0.767 | 0.752 | 0.743 |  |  |  |  |  | 0.915
SW 900 |  |  | 0.676 | 0.566 | 0.537 | 0.376 | 0.69 | 0.59 | 0.65 |  |  |  |  |  | 0.632
IA-LM |  |  |  |  |  | 1.2 | 1.05 | 1.02 | 0.625 | 1.19 | 0.721 | 0.651 | 0.747 | 1 | 1.33
EPLC-272H | 0.355 | 0.3 | 0.328 | 0.326 | 0.297 | 0.394 | 0.463 | 0.496 | 0.0829 | 1 | 0.885 | 1.01 | 0.797 | 0.735 | 0.276
A-427 | 0.555 | 0.507 | 0.545 | 0.561 | 0.553 | 0.778 | 0.995 | 0.766 | 0.208 | 1.06 | 0.888 | 0.946 | 0.813 | 0.955 | 0.447
NCI-H647 | 0.47 | 0.4 | 0.342 | 0.38 | 0.188 | 0.629 | 0.695 | 0.391 | 0.109 | 1.2 | 1.1 | 1.12 | 0.992 | 1 | 0.284
NCI-H1975 | 0.593 | 0.532 | 0.613 | 0.552 | 0.142 | 0.755 | 0.735 | 0.617 | 0.382 | 0.988 | 0.957 | 1.02 | 0.718 | 0.971 | 0.578
NCI-H358 | 0.152 | 0.157 | 0.137 | 0.109 | 0.108 | 0.691 | 0.539 | 0.382 | 0.117 | 0.623 | 0.661 | 0.599 | 0.438 | 0.693 | 0.145
PC-3 [JPC-3] | 0.516 | 0.538 | 0.514 | 0.537 | 0.285 | 0.644 | 1.15 | 0.866 | 0.469 | 0.978 | 0.997 | 0.944 | 0.859 | 1 | 0.816
NCI-H1792 | 0.707 | 0.562 | 0.593 | 0.574 | 0.496 |  |  |  |  | 0.991 | 0.998 | 1.07 |  | 1.06 | 
NCI-H596 |  |  |  |  |  | 0.539 | 0.746 | 0.718 | 0.795 | 1.09 | 0.975 | 1.04 | 0.981 | 0.949 | 0.645
RERF-LC-KJ | 1.12 | 1.04 | 1.04 | 1.03 | 0.892 | 0.56 | 0.683 | 0.538 | 0.375 | 0.794 | 0.843 | 0.832 | 0.763 | 0.754 | 0.588
NCI-H322M | 0.469 | 0.469 | 0.488 | 0.523 | 0.403 | 0.764 | 0.935 |  | 0.461 | 0.876 | 1.03 | 0.98 | 0.743 | 0.922 | 0.701
